In US4000269A, “S-(α-substituted-arylmethylthio, -arylmethylsulfinyl, and -arylmethylsulfonyl)methyl phosphorus esters used as insecticides” (priority 1975, dated 1976):

What was measured:
Assay type in all cases: in vivo
[1] = system: Southern corn rootworm larvae (Diabrotica undecimpunctata); test: Southern Corn Rootworm Control (treated soil, dust on talc); settings: 144 h, potting soil, mortality after 6 days, read-out: Percent Control of Southern Corn Rootworm Larvae; for mortality at 1120.85 g/ha: 1 lbs./Acre; for mortality at 11208.5 g/ha: 10 lbs./Acre; for mortality at 56042.5 g/ha: 50 lbs./Acre
Description: Compounds are prepared as dusts on talc. The compounds are dissolved in acetone, and appropriate rates obtained by serial dilution. One and one-quarter milliliters of solution is pipetted onto a standard volume of dust in 1 -ounce jars, and the acetone allowed to evaporate. Twenty-five milliliters of moist soil and about 200 millet seeds are placed in the jar, capped and the contents thoroughly mixed. Ten second-instar larvae of the Southern corn rootworm (Diabrotica undecimpunctata ) are then placed in each jar. Mortality counts are made after 6 days and percent mortality determined.

[2] = system: Tarnished Plant Bug (Lygus lineolaris); test: A. Tarnished Plant Bug leaf-dip test; settings: 48 h, 100 ppm., 2 days, read-out: Percent Mortality, Tarnished plant Bug
Description: (§1) Test compounds are prepared as 1000 ppm. solutions in 10 % acetone, 0.2 % Alrodyne 315 , and 89.8 % water. A tenfold dilution is made with 65 % acetone and 35 % water. The primary leaves of Sieva lima bean plants are dipped for 3 to 5 seconds in the test solutions and placed in an exhaust hood to dry. When dry, each leaf is placed in a 4 -inch petri dish with a moist filter paper on the bottom. Ten adult Lygus bugs are aspirated from the stock culture and placed in the petri dish. The dishes are covered and held at 80° F. and 50 % R.H. After 2 days, mortality counts are made.

[3] = system: Boll Weevil (Anthonomus grandis); test: B. Boll Weevil leaf-dip test; settings: 48 h, 100 ppm., 2 days, read-out: Percent Mortality, Boll Weevil
Description: as §1, with “The first or second true leaf” for “The primary leaves”, “of young cotton” for “of Sieva lima bean”, “plants is” for “plants are”, “test solution” for “test solutions”, “adult boll weevils” for “adult Lygus bugs”, “are removed” for “are aspirated”

Bean Aphid (Aphis fabae) = test: C. Bean Aphid spray test; settings: 48 h, 2 days, read-out: Percent Mortality, Bean Aphid
Description: Compounds are tested at 100 , 10 and 1 ppm. in solution or suspension in 65 % acetone/35 % water. Two-inch fiber pots each containing a nasturtium plant 2 inches high and infested with about 150 aphids 2 days earlier, are placed on a turntable (4 RPM) and sprayed for two revolutions with a No. 154 DeVilbiss Atomizer at 20 psi. air pressure. The spray tip is held about 6 inches from the plants, and the spray is directed so as to give complete coverage of the aphids and the plants. The sprayed plants are laid on their sides on white enamel trays. Mortality estimates are made after holding for 2 days at 70° F. and 50% R.H.

[4] = system: Southern Armyworm (Prodenia eridania); test: D. Southern Armyworm leaf-dip test; settings: Spodoptera eridania, 48 h, 2 days, read-out: Percent Mortality, Southern Armyworm
Description: Compounds are tested at 1000 and 100 ppm. in solution or suspension in 65 % acetone/35 % water. Sieva lima bean primary leaves are dipped for 3 seconds in the test solution and set in a hood on a screen to dry. When dry, each leaf is placed in a 4 -inch petri dish which has a moist filter paper in the bottom and ten third-instar armyworm larvae about 3/8 inch long. The dishes are covered and held at 80° F., and 60 % R.H. After 2 days, mortality counts and estimates of the amount of feeding are made. Compounds showing partial kill and/or inhibition of feeding are held an extra day for further observations.

[5] = system: Two-spotted Spider Mite (Tetranychus urticae); test: E. Two-spotted Spider Mite plant-dip test; settings: 48 h, read-out: Percent Mortality, Two-spotted Spider Mite; for mortality at 100 ppm: 2 days
Description: Sieva lima bean plants with primary leaves 3 to 4 inches long are infested with about 100 adult mites per leaf 4 hours before use in this test. The mite and egg infested plants are dipped for 3 seconds in the same solutions used in the aphid test, and the plants set in the hood to dry. They are held for 2 days at 80° F., 60% R.H., and the adult mite mortality estimated on one leaf under a steroscopic microscope. The other leaf is left on the plant an additional 5 days and then examined at 10 X power to estimate the kill of eggs and of newly hatched nymphs, giving a measure of ovicidal and residual action, respectively.

[6] = system: Mexican Bean Beetle (Epilachna varivestis); test: F. Mexican Bean Beetle leaf-dip test; settings: 48 h, 2 days, read-out: Percent Mortality, Mexican Bean Beetle
Description: Compounds to be tested are made up as 100 or 10 ppm. solutions in 65 % acetone/35 % water. Sieva lima bean leaves are dipped in the test solution and set in the hood to dry. When dry, they are placed in 4 -inch petri dishes which have a moist filter paper in the bottom, and 10 third-instar bean beetles are added to each dish. The dishes are covered and held at 80° F., 60 % R.H. After 2 days, mortality counts and estimates of the amount of feeding are made. Compounds showing kills greater than 75 % are further tested at tenfold dilutions in 65 % acetone/35 % water.

[7] = system: Western Potato Leafhopper (Empoasca abrupta); test: G. Western Potato Leafhopper plant-dip test; settings: 48 h, 2 days, read-out: Percent Mortality, Western Potato Leafhopper
Description: Sieva lima bean plants with the primary leaf expanded to 3 to 4 inches are dipped into 100 or 10 ppm. 50 % acetone/50 % water solutions and set in the hood to dry. A 1 -inch piece of the tip of a treated leaf is cut off and placed in a 4 -inch petri dish with a moist filter paper in the bottom. From 3 to 10 second-instar nymphs are tapped from the culture plants into the test dish and rapidly covered. Mortality counts are made after 2 days at 80° F., and 50 % R.H.

[8] = system: Malaria Mosquito (Anopheles quadrimaculatus); test: H. Malaria Mosquito Adult Test; settings: 24 h, adults, 1 day, read-out: Percent Mortality, Malaria Mosquito
Description: Solutions of 65% acetone/35% water containing 10 ppm. of test compound are poured into wide-mouth 2-ounce jars, each containing a microscope slide. The slides are removed from the test solution with forceps and laid horizontally to dry on a wide-mouth 4-ounce bottle. When dry, they are placed in the same 4-ounce bottle and 10 4- to 5-day-old mosquitoes of mixed sexes are added to each bottle. A piece of cotton gauze held on by an elastic band serves as a lid, and wad of cotton soaked in 10% honey solution serves as food. Mortality counts are made after 1 day at 80° F., 50% R.H. (relative humidity) Data obtained with the above procedures are reported in Table II below.

Compound	mortality at 1120.85 g/ha [1] [%]	mortality at 11208.5 g/ha [1] [%]	mortality at 56042.5 g/ha [1] [%]	mortality at 100 ppm [2] [%]	mortality at 100 ppm [3] [%]	mortality at 1 ppm (Bean Aphid (Aphis fabae)) [%]	mortality at 10 ppm (Bean Aphid (Aphis fabae)) [%]	mortality at 100 ppm (Bean Aphid (Aphis fabae)) [%]	mortality at 100 ppm [4] [%]	mortality at 1000 ppm [4] [%]	mortality at 100 ppm [5] [%]	mortality at 10 ppm [6] [%]	mortality at 100 ppm [6] [%]	mortality at 10 ppm [7] [%]	mortality at 100 ppm [7] [%]	mortality at 10 ppm [8] [%]	mortality at 300 ppm [5] [%]
CCOP(=S)(OCC)SCSC(C)(C)c1cc(Cl)ccc1Cl [Example 10, S-(2,5-Dichloro-α,α-dimethylbenzylthio)-methyl O,O-Diethyl Phosphorodithioate]	0	100	100	–	–	–	–	–	–	–	–	–	–	–	–	–	–
CCOP(=S)(OCC)SCSC(C)(C)c1cccc(C)c1 [Example 14, S-(m,α,α-Trimethylbenzylthio)methyl O,O-Diethyl Phosphorodithioate]	100	100	100	–	–	–	–	–	–	–	–	–	–	–	–	–	–
CCOP(=S)(OCC)SCSC(C)(CC)c1ccccc1 (stereo not drawn) [Example 21, S-(α-Ethyl-α-methylbenzylthio)methyl O,O-Diethyl Phosphorodithioate]	0	100	100	–	–	–	–	–	–	–	–	–	–	–	–	–	–
CCOP(=S)(OCC)SCSC(CC)(CC)c1ccccc1 [Example 22, S-(α,α-Diethylbenzylthio)methyl O,O-Diethyl Phosphorodithioate]	50	100	100	–	–	–	–	–	–	–	–	–	–	–	–	–	–
COP(=S)(OC)SCSC(C)(C)c1ccc(C#N)cc1 [Example 24, S-(p-Cyano-α,α-dimethylbenzylthio)methyl O,O-Dimethyl Phosphorodithioate]	0	100	100	–	–	–	–	–	–	–	–	–	–	–	–	–	–
CCOP(=S)(OCC)SCSC(C)(C)c1ccccc1 [drawing 6]	–	–	–	94	95	85	100	100	100	100	75	40	100	100	100	100	–
CCOP(=S)(OCC)SCSC(C)c1ccccc1 (stereo not shown) [drawing 7]	–	–	–	70	0	100	100	100	30	100	0	0	100	100	100	100	100
CCOP(=S)(OCC)SC[S+]([O-])C(C)(C)c1ccccc1 (stereo not shown) [drawing 8]	–	–	–	0	100	100	100	100	80	100	100	40	100	100	100	–	100
COP(=S)(OC)SCSC(C)(C)c1ccc(C#N)cc1 [drawing 9]	–	–	–	0	90	100	100	100	100	100	100	–	90	100	100	60	100
COP(=S)(OC)SCSC(C)(C)c1cc(Cl)ccc1Cl [drawing 10]	–	–	–	60	90	50	100	100	100	100	100	–	–	40	100	70	100
CCOP(=S)(OCC)SCSC(C)(C)c1cc(Cl)ccc1Cl [drawing 11]	–	–	–	0	50	50	100	100	100	100	90	–	0	50	100	30	100
COP(=S)(OC)SCSC(C)(C)c1ccccc1 [drawing 13]	–	–	–	90	100	80	100	100	100	100	100	80	80	100	100	–	100
CCOP(=S)(OCC)SCSC(C)(C)c1cccc(C)c1 [drawing 17]	–	–	–	0	–	0	100	100	20	100	–	–	–	–	0	0	0
